Results from patent publication US20260258066A1, “NOVEL RUTHENIUM COMPLEXES, METHOD OF THEIR SYNTHESIS, INTERMEDIATE COMPOUNDS USED IN THIS METHOD, METHOD OF THEIR SYNTHESIS AND THE USE OF NOVEL RUTHENIUM COMPLEXES IN OLEFIN METATHESIS REACTIONS” (UNIWERSYTET WARSZAWSKI, priority 2022, published 2026).

Test: Test of complex solubility in nonpolar solvents (n-hexane)
Format: physicochemical
Details: 5 mg catalyst, n-hexane added in portions, room temperature, magnetic stirring
Protocol: In a round-bottom flask equipped with a stirring bar, the catalyst (Ru-a, Ru-b, Ru-c, Ru-d, Ru-h, Ru-15, Ru-16 and Hov-II) was placed, in the amount of 5 mg of each. n-hexane was added to each of the flasks in portions, at room temperature, and the mixture was stirred using a magnetic stirrer. The Ru-a dissolved in 6 mL, and the Ru-h complex in 4 mL of the solvent. In the case of the Ru-15 complex, almost complete solubility was observed after adding 20 mL of n-hexane.

- Volume of n-hexane in which 5 mg of the complex dissolved: > 20 mL
SMILES: Cc1cc(C)c(N2CCN(c3c(C)cc(C)cc3C)[C]2=[Ru]([Cl])([Cl])=[CH]c2ccccc2OC(C)C)c(C)c1 [Hov-II]
